Reference: US11541041B1, “Compounds that interact with the Ras superfamily for the treatment of cancers, inflammatory diseases, Rasopathies, and fibrotic disease” (Shy Therapeutics LLC, priority 2017, dated 2023)
Like-named read-outs stand apart in the source and are kept apart here.

Columns and labels:
[1] = tested on: MIA-PACA2 pancreatic cancer cell lines; experiment: Cell proliferation assay (CellTiter 96 AQueous One); type: cell-based; settings: Homo sapiens, MIA PaCa-2; for inhibition at 30 µM: MIA-PACA2
Experimental: (§1) Cell lines: Tumor-derived pancreatic cancer cell lines MIA-PACA2 were purchased from ATCC and grown in complete DMEM-High Glucose medium supplemented with penicillin (100 U/mL), streptomycin (100 μg/mL), and 10% heat-inactivated FBS at 37° C. in a humidified incubator with 5% CO2.
Method: Cells are plated at 1000 cells/well density in 96-wells plate, starved ON, and the next day tested small molecules are added to the cells in the final concentration of 30 μM with 0.3% DMSO 3 hours prior to 10% FBS addition. After serum addition cells are incubated for 6 days at 37° C. in a humidified incubator with 5% CO2. For IC50 value determination, serial dilutions of compounds were added to cells under the same conditions.
Assay: At the end of the incubation period, cell cultures are tested using the CellTiter 96® AQueous One Solution Cell Proliferation Assay kit (Promega Corporation, Madison, Wis.) according to the manufacturer specifications. Briefly, assay is performed by adding 20 μl of the CellTiter 96 Aqueous One Solution Reagent directly to culture wells, followed by for 1-4 hours incubation at 37° C. in a humidified incubator with 5% CO2. At the end of incubation time, absorbance at 492 nm is recorded with the 96-well plate reader Eppendorf AF2200, and degree of small molecule-dependent proliferation inhibition is calculated from raw data assuming No Serum cells value as 100%.

[2] = tested on: MIA-PACA2 pancreatic cancer cell lines; experiment: Cell proliferation assay, alternate assay conditions (DAPI staining); type: cell-based; settings: Homo sapiens, MIA PaCa-2; for inhibition at 10 µM: * = tested at 10 μM, alternate conditions, MIA-PACA2; for IC50: MIA-PACA2 proliferation, same assay as % inhibition (alternate conditions)
Experimental: as §1
Method: Cells are plated at 4000 cells/well density in 96-wells plate. The next day tested small molecules are added to the cells in the final concentration of 10 μM in the presence of 0.3% DMSO and 10% FBS. After small molecules addition, cells are incubated for 4 days at 37° C. in a humidified incubator with 5% CO2. For IC50 value determination, serial dilutions of compounds were added to cells under the same conditions.
Assay: At the end of the incubation period, cell cultures are fixed with a 50-50 mixture (v/v) acetone-methanol for 10 minutes at −20° C., followed by rehydration in PBS for 10 minutes at room temperature. After rehydration, cells are stained with DAPI (1 μg/ml) in PBS for 10 minutes at room temperature, followed by 3 washes with PBS. After staining, DAPI fluorescence is recorded (358 nm excitation/461 nm emission) with the 96-well plate reader Molecular Devices Spectramax M3; degree of small mole-cule-dependent proliferation inhibition is calculated from raw data assuming No Serum cells value as 100%.

IL6 = experiment: Mouse IL6 quantification assay (LPS-stimulated RAW 264.7, ELISA); type: cell-based; settings: Mus musculus, RAW264.7, 30 μM; RAW 264.7 murine leukemia virus transformed macrophage cell lines, LPS stimulation; read-out: IL-6 % Inhibition at 30 μM
Experimental: (§2) Cell lines: Abelson murine leukemia virus transformed macrophage cell line RAW 264.7 was purchased from ATCC and grown in complete DMEM-High Glucose medium supplemented with penicillin (100 U/mL), streptomycin (100 μg/mL), and 10% heat-inactivated FBS at 37° C. in a humidified incubator with 5% CO2.
(§3) Method: Cells were plated at 40000 cells/well density in a 96-wells plate. After a 3-hour incubation, macrophages were starved with DMEM plus 0.5% FBS o/n. The next day the small molecules to be tested were added to the cells in the final concentration of 30 μM (with 0.3% DMSO) 3 hours prior to LPS stimulation (100 ng/ml). After LPS stimulation cells were incubated at 37° C. for 16h. At the end of the incubation period, culture media were collected and production of LPS-induced TNFα and IL6 cytokine was measured using ELISA detection kits.
(§4) Sandwich ELISA: The ELISA Immunoassays Quantikine Mouse TNF-alpha (catalog number MTA00B) and IL6 (catalog number M6000B) were purchased from R&D Systems Inc., Minneapolis, Minn. These 4.5 hours solid phase ELISAs were used to measure mouse TNFα or IL6 levels in macrophages culture supernatants. Assays were executed according to the manufacturer specifications.

TNFα = experiment: Mouse TNF alpha quantification assay (LPS-stimulated RAW 264.7, ELISA); type: cell-based; settings: Mus musculus, RAW264.7, 30 μM; RAW 264.7 murine leukemia virus transformed macrophage cell lines, LPS stimulation; read-out: TNF-α % Inhibition at 30 μM
Experimental: as §2, §3, §4

KRas wild type = KRas wild type (Homo sapiens (Human), UniProt P01116); experiment: Ras GTP binding domain inhibition assay; settings: 20 μM compound
KRas wild type, sequence (P01116-2 other isoform, or with tags, fused parts or gaps): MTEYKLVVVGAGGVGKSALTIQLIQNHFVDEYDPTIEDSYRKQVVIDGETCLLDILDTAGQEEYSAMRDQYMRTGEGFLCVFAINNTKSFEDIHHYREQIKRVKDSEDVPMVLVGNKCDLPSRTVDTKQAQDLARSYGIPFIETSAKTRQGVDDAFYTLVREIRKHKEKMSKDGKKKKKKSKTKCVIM
Experimental: (§5) Buffer-I: • 50 mM Tris, pH 7.5 • 150 mM NaCl (optional) • 1 mM MgCl2 • 1 mM DTT. • KRas G12D mutant protein was expressed as a His-tagged protein. Purified His-KRas G12D protein was diluted in buffer-I to a final concentration of 3-10 μg/ml. • 200 μl of the diluted His-KRas G12D protein was added to a nickel coated 96 well plate and incubated overnight at 4° C. • The next day, wells were washed 3× in 200 μl of Buffer-I. • Then 200 μl of Buffer-I were added to each well in the presence of 1% DMSO. • Tested compounds were added to the protein-coated wells at a concentration of 20 μM, and incubated for 3 hours at room temperature. While performing IC50 measurements a serial dilution of all tested concentrations was prepared.
(§6) Then 22 μl of Cy3-GTP or Cy5-GTP was added to each well. The labeled GTP was incubated for 45 min. at room temperature. • Following GTP incubation, wells were washed 3× in Buffer-I, and 200 μl of Buffer-I were added to each well. • Following washes, the amount of bound labeled-GTP was measured with an Eppendorf AF2200 plate reader.
(§7) By substituting KRas G12D mutant protein with KRas G12C mutant, KRas wild type, KRas Q61H mutant, KRas G12D/Q61H double mutant or KRas G12C/Q61H double mutant under the assay conditions described above, KRas G12C mutant KRas wild type, KRas Q61H mutant, KRas G12D/Q61H double mutant and KRas G12C/Q61H double mutant inhibition, respectively, were each determined.

KRas G12C mutant = KRas G12C mutant (Homo sapiens (Human), UniProt P01116, G12C); experiment: Ras GTP binding domain inhibition assay; settings: 20 μM compound
KRas G12C mutant, sequence (P01116-2 other isoform, or with tags, fused parts or gaps G12C): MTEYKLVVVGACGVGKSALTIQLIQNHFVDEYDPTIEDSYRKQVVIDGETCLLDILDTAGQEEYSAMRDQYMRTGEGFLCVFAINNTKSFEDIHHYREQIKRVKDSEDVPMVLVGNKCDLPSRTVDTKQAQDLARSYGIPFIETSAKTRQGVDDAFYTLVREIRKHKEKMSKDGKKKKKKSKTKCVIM
Experimental: as §5, §6, §7

KRas G12D mutant protein = KRas G12D mutant protein (Homo sapiens (Human), UniProt P01116, G12D); experiment: Ras GTP binding domain inhibition assay
KRas G12D mutant protein, sequence (P01116-2 other isoform, or with tags, fused parts or gaps G12D): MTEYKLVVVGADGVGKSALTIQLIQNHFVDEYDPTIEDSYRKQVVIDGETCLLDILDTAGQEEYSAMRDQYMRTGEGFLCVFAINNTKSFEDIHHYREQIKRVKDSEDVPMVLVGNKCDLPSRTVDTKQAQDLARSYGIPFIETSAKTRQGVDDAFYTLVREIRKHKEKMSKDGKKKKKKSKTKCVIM
Experimental: The following method was developed as specific assay for KRas G12D mutant protein.
as §5, §6

[3] = molecular target: KRas G12D/Q61H double mutant (Homo sapiens (Human), UniProt P01116, G12D/Q61H); experiment: Ras GTP binding domain inhibition assay; settings: at 20 μM; read-out: KRas G12D Q61H % Inh.
KRas G12D/Q61H double mutant, sequence (P01116-2 other isoform, or with tags, fused parts or gaps G12D/Q61H): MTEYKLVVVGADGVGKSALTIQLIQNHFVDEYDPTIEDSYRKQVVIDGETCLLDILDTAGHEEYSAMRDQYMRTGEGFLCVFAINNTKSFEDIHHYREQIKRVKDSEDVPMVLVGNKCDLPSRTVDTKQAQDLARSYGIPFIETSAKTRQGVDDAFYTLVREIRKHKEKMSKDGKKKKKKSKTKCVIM
Experimental: as §5, §6, §7

Rac-1 = Rac-1 (Homo sapiens (Human), UniProt P63000); experiment: Rac and Rho inhibition assay; type: binding; settings: read-out: Rac-1 % Inh.
Experimental: as §5, §6
(§8) By substituting KRas G12D mutant protein with either Rac-1 or Rho-A under the assay conditions described in Example 5, Rac-1 and Rho-A inhibition, respectively, were each determined.

Rho-A = Rho-A (Homo sapiens (Human), UniProt P61586); experiment: Rac and Rho inhibition assay; type: binding; settings: read-out: Rho-A % Inh.
Rho-A, sequence (P61586 whole entry): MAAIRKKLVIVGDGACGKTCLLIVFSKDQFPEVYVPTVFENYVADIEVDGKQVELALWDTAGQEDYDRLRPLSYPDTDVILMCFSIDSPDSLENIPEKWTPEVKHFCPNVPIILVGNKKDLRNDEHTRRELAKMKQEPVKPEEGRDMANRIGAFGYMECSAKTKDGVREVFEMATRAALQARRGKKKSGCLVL
Experimental: as §5, §6, §8

[4] = 20 μM compound, read-out: % Inhibition at 20 μM, KRas G12D
[5] = at 20 μM, read-out: KRas G12D % Inh.

COCCOCCN(CCO)C(=O)c1csc2c(O)nc(-c3ccccn3)nc12
inhibition at 30 µM [1]: 1 to 25%

COc1cncc(CCNC(=O)c2csc3nc(-c4ccccn4)nc(N4CCOCC4)c23)c1
inhibition at 30 µM [1]: 51 to 75%

COCCCCNC(=O)c1csc2nc(-c3ccccn3)nc(N3CCSCC3)c12
inhibition at 30 µM [1]: 1 to 25%

Nc1nc(-c2ccccn2)nc2c(C(=O)N3CC4CC3CN4c3ccccc3)csc12 (stereo not shown)
inhibition at 30 µM [1]: 76 to 100%

Nc1nc(-c2ccccn2)nc2c(-c3ccccn3)csc12
inhibition at 30 µM [1]: 76 to 100% | IC50 ([1]; MIA-PACA2 proliferation, compound tested under both conditions, IC50 assay conditions not specified): > 1000 nM | inhibition at 10 µM [2]: 76 to 100%

COc1nc(-c2ccccn2)nc2c(-c3cccc(O)c3)csc12
inhibition at 10 µM [2]: 76 to 100%

COc1nc(-c2ccccn2)nc2c(-c3cn(C)nc3C(C)C)csc12
inhibition at 10 µM [2]: 76 to 100%

COc1nc(-c2ccccn2)nc2c(-c3cc(CN4CCCC4)ccc3F)csc12
inhibition at 10 µM [2]: 76 to 100%

COc1nc(-c2ccccn2)nc2c(-c3cccc(C#N)c3)csc12
inhibition at 10 µM [2]: 76 to 100%

O=c1[nH]c(-c2ccccn2)nc2c(C3O[C@H](CO)[C@@H](O)[C@H]3O)csc12 (stereo partly shown)
inhibition at 10 µM [2]: 76 to 100%

COOCCNc1nc(-c2nccn2C)nc2sc(-c3ccccc3)c(-c3ccccc3)c12
inhibition at 10 µM [2]: 76 to 100% | IC50 [2]: 501 to 1000 nM

COCC(C)Nc1nc(-c2ccccn2)nc2sc(-c3ccncc3)c(-c3ccccc3)c12 (stereo not shown)
inhibition at 10 µM [2]: 51 to 75%

SOCCNc1nc(-c2ccccn2)nc2sc(-c3ccccc3)c(-c3ccccn3)c12
inhibition at 10 µM [2]: 76 to 100%

Cn1ccnc1-c1nc(NCCOS)c2c(-c3ccccn3)c(-c3ccccc3)sc2n1
inhibition at 10 µM [2]: 76 to 100% | IC50 [2]: 501 to 1000 nM

CC(C)Cc1csc2c(N)nc(-c3ccccn3)nc12
inhibition at 30 µM (IL6): 76 to 100% | inhibition at 30 µM (TNFα): 76 to 100%

Nc1cccc(-c2csc3c(N)nc(-c4ccccn4)nc23)n1
inhibition at 30 µM (IL6): 76 to 100% | inhibition at 30 µM (TNFα): 26 to 50%

Cc1sc2c(N)nc(-c3ccccn3)nc2c1-c1ccccc1Cl
inhibition at 30 µM (IL6): 51 to 75% | inhibition at 30 µM (TNFα): 51 to 75%

COCC(C)Nc1nc(-c2ccccc2)nc2sc(-c3ccncc3)c(-c3ccccc3)c12 (stereo not shown)
inhibition at 30 µM (IL6): 0% | inhibition at 30 µM (TNFα): 26 to 50%

COCCOc1nc(-c2ccncn2)nc2sc(-c3ccccc3)c(-c3ccccc3)c12
inhibition at 20 µM (KRas wild type): 1 to 25% | inhibition at 20 µM (KRas G12C mutant): 1 to 25% | inhibition at 20 µM (KRas G12D mutant protein; [4]): 0%

Cc1cccc(-c2c(C)sc3c(O)nc(-c4nccn4C)nc23)c1
inhibition at 20 µM (KRas wild type): 1 to 25% | inhibition at 20 µM (KRas G12C mutant): 1 to 25% | inhibition at 20 µM (KRas G12D mutant protein; [4]): 1 to 25%

Cc1ccc(-c2csc3c(O)nc(-c4nccn4C)nc23)c(F)c1
inhibition at 20 µM (KRas wild type): 1 to 25% | inhibition at 20 µM (KRas G12C mutant): 1 to 25% | inhibition at 20 µM (KRas G12D mutant protein; [4]): 25 to 50%

Nc1nc(-c2ccccn2)nc2c(CC3CCNCC3)csc12
inhibition at 20 µM [3]: 51 to 75% | inhibition at 20 µM (KRas G12D mutant protein; [5]): 51 to 75% | inhibition at 20 µM (Rac-1): 51 to 75% | inhibition at 20 µM (Rho-A): 76 to 100%

CC(O)ONc1nc(-c2nccn2C)nc2sc(-c3ccccc3)c(-c3ccccc3)c12 (stereo not shown)
inhibition at 20 µM (KRas G12D mutant protein; [5]): 1 to 25% | inhibition at 20 µM (Rac-1): 25 to 50% | inhibition at 20 µM (Rho-A): 25 to 50%

COc1ccc(CCNC(=O)c2csc3nc(-c4ccccn4)nc(N4CCSCC4)c23)cn1 [drawing 1763]
inhibition at 30 µM [1]: 51 to 75%

O=C(NCCc1cnc(O)nc1)c1csc2nc(-c3ccccn3)nc(N3CCSCC3)c12 [drawing 1764]
inhibition at 30 µM [1]: 1 to 25%

Cc1cc2nc(-c3ccccn3)nc(O)c2s1 [drawing 2263]
inhibition at 30 µM (IL6): 1 to 25% | inhibition at 30 µM (TNFα): 1 to 25%

COc1ccc(CCNC(=O)c2csc3nc(-c4ccccn4)nc(N4CCSCC4)c23)cn1 [drawing 2280]
inhibition at 30 µM (IL6): 26 to 50% | inhibition at 30 µM (TNFα): 0%

O=C(NCCc1cnc(O)nc1)c1csc2nc(-c3ccccn3)nc(N3CCSCC3)c12 [drawing 2281]
inhibition at 30 µM (IL6): 51 to 75% | inhibition at 30 µM (TNFα): 0%

OC[C@H]1O[C@@H](c2csc3c2N=C(c2ccccn2)NC3O)[C@H](O)[C@@H]1O (stereo partly shown) [drawing 2388]
inhibition at 30 µM (IL6): 1 to 25% | inhibition at 30 µM (TNFα): 26 to 50%

COCCNc1nc(-c2nccn2C)nc2sc(-c3ccccc3)c(-c3ccccc3)c12 [drawing 3594]
% Inhibition at 20 μM, KRas wild type (KRas wild type): B (B = 25-50% inhibition) | % Inhibition at 20 μM, KRas G12C (KRas G12C mutant): A (A = 1-25% inhibition) | % Inhibition at 20 μM, KRas G12D (KRas G12D mutant protein; 20 μM compound): B (B = 25-50% inhibition)
